Results from patent US7951807B2 (Abbott GmbH & Co. KG, priority 2004, dated 2011).
Where a name gives a salt, the structure may show the parent alone.

Key:
[1] = biological target: T1, human V1a receptors (Homo sapiens); experiment: Vasopressin V1a Receptor Binding Test; conditions: membranes of CHO cells with stably expressed human V1a receptors, 125 iodine AVP displacement
T1 construct: expressed in transfected cells
Method: Vasopressin V1a Receptor Binding Test
(§1) The substances were dissolved in DMSO in a concentration of 10^−2 M and further diluted in DMSO to 10^−3 M to 10^−9 M. These DMSO solutions were diluted 1:10 with a test buffer. In the test batch, the substance concentration was again diluted 1:10.
The binding test was conducted according to the method of Tahara et al. (Tahara A. et al., Brit. J. Pharmacol. 125, 1463-1470 (1998)). In the test batch (0.250 ml), membranes (50 μg protein in an incubation buffer (50 mmol tris, 10 mmol MgCl2, 0.1% BSA adjusted to pH 7.4 with HCl)) of CHO cells were incubated with stably expressed human V1a receptors (preparation V1a clone 5.0, with protease inhibitors, Roche complete Mini # 1836170) with 0.04 nmol 125 iodine AVP (NEX128) in the incubation buffer (total binding) or additionally with increasing concentrations of the test substance (displacement experiment). The non-specific binding was determined with 10^−6 M AVP. Determinations were carried out three times.
(§2) After incubation, 60 minutes at room temperature, the free radioligand was filtered off using vacuum filtration (Skatron cell harvester 7000) through Wathman GF/B fibreglass filters, and the filters were transferred to scintillation containers.
(§3) The liquid scintillation measurement was made in a Tricarb device, model 2000 or 2200CA (Packard). The conversion of the measured cpm into dpm was carried out with the help of a standard quench series.
(§4) The binding parameters were calculated using non-linear regression in SAS. The algorithms of the program work in a manner analogous to the LIGAND evaluation program (Munson P J und Rodbard D, Analytical Biochem. 107, 220-239 (1980)).

[2] = biological target: T2, human V1b receptors (Homo sapiens, UniProt P47901); experiment: Vasopressin V1b Receptor Binding Test; conditions: membranes of CHO-K1 cells with stably expressed human V1b receptors, 3H-AVP displacement
T2 construct: expressed in transfected cells
T2 sequence (P47901 1-424): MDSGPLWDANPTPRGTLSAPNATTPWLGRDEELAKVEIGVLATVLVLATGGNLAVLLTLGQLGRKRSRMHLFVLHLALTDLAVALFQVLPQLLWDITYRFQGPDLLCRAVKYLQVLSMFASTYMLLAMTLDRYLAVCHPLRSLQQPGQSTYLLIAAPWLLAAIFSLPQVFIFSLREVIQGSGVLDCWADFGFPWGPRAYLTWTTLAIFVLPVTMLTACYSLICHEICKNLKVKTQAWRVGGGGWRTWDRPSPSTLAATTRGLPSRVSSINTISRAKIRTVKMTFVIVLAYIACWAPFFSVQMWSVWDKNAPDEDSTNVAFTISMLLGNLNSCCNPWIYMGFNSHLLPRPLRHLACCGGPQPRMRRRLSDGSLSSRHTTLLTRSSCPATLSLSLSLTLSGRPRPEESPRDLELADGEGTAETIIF
Method: Vasopressin V1b Receptor Binding Test
as §1
The binding test was conducted according to the method of Tahara et al. (Tahara A. et al., Brit. J. Pharmacol. 125, 1463-1470 (1998)). In the test batch (0.250 ml), membranes (58 μg protein in an incubation buffer) of CHO-K1 cells were incubated with stably expressed human V1b receptors (preparation V1b-3H2, with protease inhibitors, Roche complete Mini # 1836170) with 1.5 nmol ^3H-AVP (8-Arg-Vasopressin, NET 800) in incubation buffer (50 mmol Tris, 10 mmol MgCl2, 0.1% BSA adjusted to pH 7.4 with HCl) (total binding) or additionally with increasing concentrations of the test substance (displacement experiment). The non-specific binding was determined with 10^−6 M AVP. Determinations were carried out three times.
Incubation buffer: 50 mmol tris, 10 mmol MgCl2, 0.1% BSA adjusted to pH 7.4 with HCl.
as §2, §3, §4

Ki [1] [nM] | Ki [2] [nM] | SMILES
< 100 | – | COc1ccc(S(=O)(=O)N2C(=O)C(OC(=O)N3CCN(C4CCN(C)CC4)CC3)(c3ccccc3C)c3cc(OC)ccc32)c(OC)c1 (stereo not drawn) [Example 8, 4-(1-Methyl-piperidine-4-yl)-piperazine-1-carboxylic acid-[1-(2,4-dimethoxy-benzenesulfonyl)-5-methoxy-2-oxo-3-(2-methylphenyl)-2,3-dihydro-1H-indole-3-yl] ester dihydrochloride]
– | < 100 | COc1ccc(S(=O)(=O)N2C(=O)C(OC(=O)N3CCN(C4CCN(C)CC4)CC3)(c3ccccc3OC)c3ccccc32)c(OC)c1 (stereo not drawn) [Example 23, 4-(1-Methyl-piperidine-4-yl)-piperazine-1-carboxylic acid-[1-(2,4-dimethoxy-benzenesulfonyl)-2-oxo-3-(2-methoxyphenyl)-2,3-dihydro-1H-indole-3-yl] ester dihydrochloride]
– | < 100 | CCCOc1ccccc1C1(OC(=O)N2CCN(C3CCN(C)CC3)CC2)C(=O)N(S(=O)(=O)c2ccc(OC)cc2OC)c2ccc(OC)cc21 (stereo not drawn) [Example 2, 4-(1-Methyl-piperidine-4-yl)-piperazine-1-carboxylic acid-[1-(2,4-dimethoxy-benzenesulfonyl)-5-methoxy-2-oxo-3-(2-propoxyphenyl)-2,3-dihydro-1H-indole-3-yl] ester]
– | < 100 | CCOc1ccccc1C1(OC(=O)N2CCN(C3CCN(C)CC3)CC2)C(=O)N(S(=O)(=O)c2ccc(OC)cc2OC)c2ccc(OC)cc21 (stereo not drawn) [Example 30, 4-(1-Methyl-piperidine-4-yl)-piperazine-1-carboxylic acid-[1-(2,4-dimethoxy-benzenesulfonyl)-5-methoxy-2-oxo-3-(2-ethoxyphenyl)-2,3-dihydro-1H-indole-3-yl] ester dihydrochloride]
– | < 100 | COc1ccc2c(c1)C(OC(=O)N1CCN(C3CCN(C)CC3)CC1)(c1ccccc1OC(C)C)C(=O)N2S(=O)(=O)c1ccc(C)cc1OC (stereo not drawn) [Example 26, 4-(1-Methyl-piperidine-4-yl)-piperazine-1-carboxylic acid-[1-(2-methoxy-4-methyl-benzene)-sulfonyl-5-methoxy-2-oxo-3-(2-isopropoxyphenyl)-2,3-dihydro-1H-indole-3-yl] ester dihydrochloride]
– | < 100 | COc1ccc(S(=O)(=O)N2C(=O)C(OC(=O)N3CCN(C4CCN(C)CC4)CC3)(c3ccccc3OC)c3cc(F)ccc32)c(OC)c1 (stereo not drawn) [Example 10, 4-(1-Methyl-piperidine-4-yl)-piperazine-1-carboxylic acid-[1-(2,4-dimethoxy-benzenesulfonyl)-5-fluoro-2-oxo-3-(2-methoxyphenyl)-2,3-dihydro-1H-indole-3-yl] ester]
– | < 100 | COc1ccc(S(=O)(=O)N2C(=O)C(OC(=O)N3CCN(C4CCN(C)CC4)CC3)(c3ccccc3OC)c3cc(C)ccc32)c(OC)c1 (stereo not drawn) [Example 17, 4-(1-Methyl-piperidine-4-yl)-piperazine-1-carboxylic acid-[1-(2,4-dimethoxy-benzenesulfonyl)-5-methyl-2-oxo-3-(2-methoxyphenyl)-2,3-dihydro-1H-indole-3-yl] ester dihydrochloride]
– | < 100 | COc1ccc(S(=O)(=O)N2C(=O)C(OC(=O)N3CCN(C4CCN(C)CC4)CC3)(c3ccccc3OC(C)C)c3cc(OC)ccc32)c(OC)c1 (stereo not drawn) [Example 24, 4-(1-Methyl-piperidine-4-yl)-piperazine-1-carboxylic acid-[1-(2,4-dimethoxy-benzenesulfonyl)-5-methoxy-2-oxo-3-(2-isopropoxyphenyl)-2,3-dihydro-1H-indole-3-yl] ester dihydrochloride]
– | < 100 | COc1ccc(S(=O)(=O)N2C(=O)C(OC(=O)N3CCN(C4CCN(C)CC4)CC3)(c3ccccc3OC)c3cc(OC)ccc32)c(OC)c1 (stereo not drawn) [Example 6, 4-(1-Methyl-piperidine-4-yl)-piperazine-1-carboxylic acid-[1-(2,4-dimethoxy-benzenesulfonyl)-5-methoxy-2-oxo-3-(2-methoxyphenyl)-2,3-dihydro-1H-indole-3-yl] ester dihydrochloride]

The remaining lines, values behind:

SMILES | Ki [1] [nM] | Ki [2] [nM]
COc1ccccc1C1(OC(=O)N2CCN(C3CCN(C)CC3)CC2)C(=O)N(S(=O)(=O)c2ccccc2)c2ccc(Cl)cc21 (stereo not drawn) [Example 1] | < 100 | –
COc1ccc(S(=O)(=O)N2C(=O)C(OC(=O)N3CCN(C4CCN(Cc5ccccc5)CC4)CC3)(c3ccccc3OC)c3cc(OC)ccc32)c(OC)c1 (stereo not drawn) [Example 13, 4-(1-Benzyl-piperidine-4-yl)-piperazine-1-carboxylic acid-[1-(2,4-dimethoxy-benzenesulfonyl)-5-methoxy-2-oxo-3-(2-methoxyphenyl)-2,3-dihydro-1H-indole-3-yl] ester] | < 100 | –
CN1CCN(C2CCN(C(=O)OC3(c4ccccc4)C(=O)N(S(=O)(=O)c4ccccc4)c4ccc(Cl)cc43)CC2)CC1 (stereo not drawn) [Example 5, 4-(4-Methyl-piperazine-1-yl)-piperidine-1-carboxylic acid-[1-benzenesulfonyl-5-chloro-2-oxo-3-phenyl-2,3-dihydro-1H-indole-3-yl] ester] | < 100 | –
COc1ccc(S(=O)(=O)N2C(=O)C(NC(=O)N3CCN(C4CCN(C)CC4)CC3)(c3ccccc3OC)c3cc(OC)ccc32)c(OC)c1 (stereo not drawn) [Example 16, 4-(1-Methyl-piperidine-4-yl)-piperazine-1-carboxylic acid-[1-(2,4-dimethoxy-benzenesulfonyl)-5-methoxy-2-oxo-3-(2-methoxyphenyl)-2,3-dihydro-1H-indole-3-yl] amide dihydrochloride] | – | < 100
COc1ccc(S(=O)(=O)N2C(=O)C(NC(=O)N3CCN(C4CCN(C)CC4)CC3)(c3ccccc3OC)c3cc(Cl)ccc32)c(OC)c1 (stereo not drawn) [Example 3, 4-(1-Methyl-piperidine-4-yl)-piperazine-1-carboxylic acid-[1-(2,4-dimethoxy-benzenesulfonyl)-5-chloro-2-oxo-3-(2-methoxyphenyl)-2,3-dihydro-1H-indole-3-yl] amide dihydrochloride] | < 100 | –
CN1CCC(N2CCN(C(=O)OC3(c4ccccc4)C(=O)N(S(=O)(=O)c4ccccc4)c4ccc(Cl)cc43)CC2)CC1 (stereo not drawn) [Example 4, 4-(1-Methyl-piperidine-4-yl)-piperazine-1-carboxylic acid-[1-benzenesulfonyl-5-chloro-2-oxo-3-phenyl-2,3-dihydro-1H-indole-3-yl] ester dihydrochloride] | < 100 | –
